Values of other authors, collected in patent publication US20240417323A1, “BUBBLE-CONTAINING GYPSUM SLURRY” (KAO CORPORATION, priority 2022, published 2024).

Conditions: 1-octanol/water; measured value if any, otherwise C log P calculated by C LOG P v 4.01

Structure (SMILES)	Log P
COC [dimethyl ether]	0.1
CCC(C)(O)CC [3-methyl-3-pentanol]	1.57
CC(C)OC(C)C [diisopropyl ether]	1.52
CCC(C)C(C)O (centres unmarked) [3-methyl-2-pentanol]	1.57
CCC(O)C(C)C (centres unmarked) [2-methyl-3-pentanol]	1.57
CC(C)CCCO [4-methyl-1-pentanol]	1.75
CCC(CC)CO [2-ethyl-1-butanol]	1.75
OC1CCCC1 [cyclopentanol]	0.71
CCC(C)(C)CO [2,2-dimethyl-1-butanol]	1.57
CC(C)C(C)O (centres unmarked) [3-methyl-2-butanol]	1.28
CCCCCCCO [Example 1-heptanol, 1-heptanol]	2.62
CC(C)CC(C)O (centres unmarked) [4-methyl-2-pentanol]	1.57
CCCC(C)(C)O [2-methyl-2-pentanol]	1.57
CCCC=O [butanal]	0.88
CCCCOCC [butyl ethyl ether]	2.03
CC(C)CCCCCO [6-methyl-1-heptanol]	2.73
CCCCCC=O [hexanal]	1.78
CCCC(C)CO (centres unmarked) [2-methyl-1-pentanol]	1.75
CCC(C)CCO (centres unmarked) [3-methyl-1-pentanol]	1.75
CCCCOC(=O)C(C)O (centres unmarked) [butyl lactate]	0.8
